What was measured:
[1] = biological target: hERG (KCNH2) (Homo sapiens, UniProt Q12809); experiment: Inhibition of hERG at 5 ug/ml by rubidium efflux assay; type: toxicity
[2] = biological target: Melanin-concentrating hormone receptor 1 (Homo sapiens, UniProt Q99705); experiment: Antagonist activity at MCHR1; type: functional
[3] = tested on: Mus musculus; experiment: Ex vivo receptor occupancy at MCHR1 in mouse at 30 mg/kg, po; type: functional

Sequence of Melanin-concentrating hormone receptor 1 (Q99705 whole entry): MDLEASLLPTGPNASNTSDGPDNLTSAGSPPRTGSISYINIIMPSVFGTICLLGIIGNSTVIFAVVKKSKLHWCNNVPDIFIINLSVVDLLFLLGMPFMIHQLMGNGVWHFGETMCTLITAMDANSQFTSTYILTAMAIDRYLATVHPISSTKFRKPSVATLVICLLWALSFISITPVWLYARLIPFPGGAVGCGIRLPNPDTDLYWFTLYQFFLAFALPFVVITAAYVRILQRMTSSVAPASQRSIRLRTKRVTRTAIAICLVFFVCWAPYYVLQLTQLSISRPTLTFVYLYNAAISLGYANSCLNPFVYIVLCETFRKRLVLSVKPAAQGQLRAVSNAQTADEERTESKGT
Sequence of hERG (KCNH2) (Q12809 whole entry): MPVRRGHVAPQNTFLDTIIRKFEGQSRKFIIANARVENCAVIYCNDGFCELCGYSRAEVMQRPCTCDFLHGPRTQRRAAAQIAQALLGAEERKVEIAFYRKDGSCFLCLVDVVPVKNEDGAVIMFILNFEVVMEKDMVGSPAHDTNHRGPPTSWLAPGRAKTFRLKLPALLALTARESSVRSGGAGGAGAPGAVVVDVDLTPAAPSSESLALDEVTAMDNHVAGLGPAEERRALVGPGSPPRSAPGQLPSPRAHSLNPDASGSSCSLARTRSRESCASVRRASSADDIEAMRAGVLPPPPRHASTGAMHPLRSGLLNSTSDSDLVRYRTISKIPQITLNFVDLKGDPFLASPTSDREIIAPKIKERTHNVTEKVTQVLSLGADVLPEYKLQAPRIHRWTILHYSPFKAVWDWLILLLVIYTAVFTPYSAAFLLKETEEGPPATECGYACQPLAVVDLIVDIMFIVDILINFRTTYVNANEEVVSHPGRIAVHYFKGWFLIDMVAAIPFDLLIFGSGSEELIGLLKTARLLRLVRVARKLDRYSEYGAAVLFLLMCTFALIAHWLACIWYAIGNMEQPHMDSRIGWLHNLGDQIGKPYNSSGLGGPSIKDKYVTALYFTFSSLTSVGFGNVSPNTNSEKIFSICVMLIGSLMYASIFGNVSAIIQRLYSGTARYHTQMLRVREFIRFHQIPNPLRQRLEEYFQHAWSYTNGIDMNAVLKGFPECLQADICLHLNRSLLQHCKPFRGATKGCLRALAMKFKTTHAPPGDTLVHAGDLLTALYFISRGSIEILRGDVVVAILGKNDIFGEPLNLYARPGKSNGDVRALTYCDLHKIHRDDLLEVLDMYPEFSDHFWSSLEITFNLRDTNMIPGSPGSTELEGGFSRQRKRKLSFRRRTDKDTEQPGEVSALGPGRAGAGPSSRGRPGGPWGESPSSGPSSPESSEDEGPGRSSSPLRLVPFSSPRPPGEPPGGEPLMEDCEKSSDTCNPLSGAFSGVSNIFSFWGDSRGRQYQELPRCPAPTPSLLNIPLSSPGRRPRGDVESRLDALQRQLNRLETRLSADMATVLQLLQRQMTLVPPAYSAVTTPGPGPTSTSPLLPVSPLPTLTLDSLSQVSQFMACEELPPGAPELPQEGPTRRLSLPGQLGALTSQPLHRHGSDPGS

N#Cc1cccc([C@]23CC[C@@H](N(CCN4CC[C@@H](O)C4)C(=O)Nc4ccc(F)c(Cl)c4)CC2C3)c1 (some centres not stated)
inhibition at 5 ug/ml [1]: 80%

N#Cc1cccc([C@]23CC[C@@H](N(CCCN4CC[C@@H](O)C4)C(=O)Nc4ccc(F)c(Cl)c4)[C@H]2C3)c1
Ki [2]: 22 nM | inhibition at 5 ug/ml [1]: 86%

NCc1ncc([C@]23CC[C@@H](N(CCN4CCCC4)C(=O)Nc4ccc(F)c(C(F)(F)F)c4)C2C3)s1 (some centres not stated)
Ki [2]: 107 nM | inhibition at 5 ug/ml [1]: 16%

NCc1ncc([C@]23CC[C@@H](N(CCN4CC[C@H](O)C4)C(=O)Nc4ccc(F)c(C(F)(F)F)c4)C2C3)s1 (some centres not stated)
Ki [2]: 99 nM | inhibition at 5 ug/ml [1]: 8%

NCc1ncc([C@]23CC[C@@H](N(CCCN4CC[C@H](O)C4)C(=O)Nc4ccc(F)c(C(F)(F)F)c4)C2C3)s1 (some centres not stated)
Ki [2]: 45 nM | inhibition at 5 ug/ml [1]: -4%

NCc1ncc([C@]23CC[C@@H](N(CCCN4CC[C@@H](O)C4)C(=O)Nc4ccc(F)c(C(F)(F)F)c4)C2C3)s1 (some centres not stated)
Ki [2]: 17 nM | inhibition at 5 ug/ml [1]: -4%

C[C@@H]1CN(CCCN(C(=O)Nc2cc(Cl)nc(Cl)c2)[C@@H]2CC[C@]3(c4cnc(CN)s4)CC23)[C@@H](C)CN1 (some centres not stated)
Ki [2]: 13.1 nM | inhibition at 5 ug/ml [1]: 3%

NCc1ncc([C@]23CC[C@@H](N(CCCN4CC5CC4CN5)C(=O)Nc4ccc(F)c(C(F)(F)F)c4)C2C3)s1 (some centres not stated)
Ki [2]: 73 nM | inhibition at 5 ug/ml [1]: 14%

NCc1ncc([C@]23CC[C@H](N(CCCN4CC[C@@H](O)C4)C(=O)Nc4ccc(F)c(C(F)(F)F)c4)[C@H]2C3)s1
Ki [2]: 6.6 nM | inhibition at 5 ug/ml [1]: 8%

C[C@@H]1CN(CCCN(C(=O)Nc2cc(Cl)nc(Cl)c2)[C@H]2CC[C@]3(c4cnc(CN)s4)C[C@H]23)[C@@H](C)CN1
inhibition in vivo at 30 mg/kg [3]: 16% | Ki [2]: 6.1 nM | inhibition at 5 ug/ml [1]: -12%

NCc1ncc(C2=CCC(N(CCN3CCCC3)C(=O)Nc3ccc(F)c(Cl)c3)CC2)s1 (configuration not stated)
inhibition in vivo at 30 mg/kg [3]: 88% | inhibition at 5 ug/ml [1]: 10%

C[C@@H]1CN(CCCN(C(=O)Nc2cc(Cl)nc(Cl)c2)[C@H]2CC[C@@]3(c4cnc(CN)s4)C[C@@H]23)[C@@H](C)CN1
inhibition in vivo at 30 mg/kg [3]: 20% | Ki [2]: 117 nM | inhibition at 5 ug/ml [1]: -13%

C[C@@H]1CN[C@@H](C)CN1CCCN(C(=O)Nc1cc(Cl)nc(Cl)c1)[C@H]1CC[C@]2(c3cnc(CN)s3)C[C@H]12
inhibition in vivo at 30 mg/kg [3]: 39% | Ki [2]: 4 nM | inhibition at 5 ug/ml [1]: 22%

C[C@@H]1CN(CCCN(C(=O)Nc2ccc(F)c(C(F)(F)F)c2)[C@@H]2CC[C@]3(c4cnc(CN)s4)CC23)[C@@H](C)CN1 (some centres not stated)
Ki [2]: 19 nM | inhibition at 5 ug/ml [1]: -8%

NCc1cnc([C@]23CC[C@@H](N(CCN4CCCC4)C(=O)Nc4ccc(F)c(C(F)(F)F)c4)CC2C3)s1 (some centres not stated)
Ki [2]: 431 nM | inhibition at 5 ug/ml [1]: 19%

NCc1ncc([C@@]23CC[C@H](N(CCCN4CC[C@@H](O)C4)C(=O)Nc4ccc(F)c(C(F)(F)F)c4)[C@@H]2C3)s1
Ki [2]: 167 nM | inhibition at 5 ug/ml [1]: 6%

C[C@@H]1CN[C@@H](C)CN1CCCN(C(=O)Nc1cc(Cl)nc(Cl)c1)[C@H]1CC[C@@]2(c3cnc(CN)s3)C[C@@H]12
inhibition in vivo at 30 mg/kg [3]: 26% | Ki [2]: 171 nM | inhibition at 5 ug/ml [1]: 17%

Source: ChEMBL document CHEMBL1149643, “Synthesis of novel bicyclo[4.1.0]heptane and bicyclo[3.1.0]hexane derivatives as melanin-concentrating hormone receptor R1 antagonists” (Bioorg Med Chem Lett, 2007)
